Experimental data taken from US20240165196A1, “Beta-Lactamase Inhibitors” (VIB VZW, priority 2021, published 2024).

Tests used:
Assay in all cases: MIC of ampicillin without/with 30 μg/mL TEM3.2, clinical isolates
Type in all cases: cell-based
[1] = tested on: E. coli clinical isolate, β-lactamase SHV-12; TEM-ESBL; conditions: isolate 2017 Germany, RTI, Bronchi
Procedure: (§1) Moreover, the core sequence of peptide TEM3.0 also occurs in the structurally related SHV β-lactamase (FIG. 2E). Although the C-terminal extension residues H and N have been replaced with physicochemically similar R and Q, respectively (FIG. 2H). […] To quantify the synergy between these four peptides and penicillin G, we performed a so-called checkerboard assay, which allows to compare the activity of two test compounds co-incubated (here peptide and a beta-lactam antibiotic), to their individual activities in isolation. The result from the assay is quantified as the Fractional Inhibitory Concentration Index (FICI), and it is generally accepted that values below 0.5 indicate synergistic effects between the compounds. As a control, we generated a peptide using the same design, but based on a previously identified APR from the β-galactosidase enzyme (BGAL)^16 from E. coli (APR=SVIIWSL, peptide sequence=[…]) that has a MIC value>100 μg/mL on E. coli strain UZ_TEM104. We evaluated the synergy of the peptides with penicillin G in clinical E. coli isolates carrying the TEM (FIG. 2I) or SHV enzymes (FIG. 2J). […] As a further control, we also performed a checkerboard assay with an E. coli strain that was resistant to the aminoglycoside kanamycin and observed no synergy between this unrelated antibiotic and our peptides (FIG. 2L), in line with the notion that we are inhibiting a beta-lactamase but not the aminoglycoside degrading enzyme. […] The list of strains included some that harbored only TEM or SHV, but others contained additional Ambler Class A (CTX-M or OXA) or Class B (VIM and NDM) beta-lactamases. […] In contrast, the presence of the NDM-type […], that does have a high affinity for Ampicillin and that is completely distinct in sequence and structure from TEM and SHV, seemed to completely prevent the effect of the peptide on the beta-lactam sensitivity of the strains in which it occurred (see also further). As it appeared that TEM3.2 had activity in most isolates tested, we decided to focus further analysis on this peptide. Furthermore, we tested the performance of the TEM3.2 peptide in a checkerboard assay on strains carrying ESBL mutants of TEM, i.e. extended-spectrum mutations that cluster around the active site of the enzyme, and not in the aggregation prone region targeted by the peptide, and as expected from our mode of action, we observed synergy with ampicillin on these strains (FIG. 2M).
(§2) Determination of MIC values using the broth microdilution in the 96-well plate (BD Biosciences, Belgium) according to the EUCAST guideline, which was performed in 96-well polystyrene flat bottom microtiter plates (BD Biosciences). Briefly, a single colony was inoculated into 5 mL Difco™ Mueller Hinton Broth (BD Biosciences Ref 275730) and grown to the end-exponential growth phase in a shaking incubator at 37° C. Cultures were subsequently diluted to an MacFarland (0.5 optical density) then the culture was diluted to reach 10^6 CFU/mL in fresh MHB medium. 50 μl of different concentration of peptides ranging from 128 to 2 μg/mL were serially diluted to the sterile 96-well plate in MHB. 50 μL of the diluted bacteria in MHB were pipetted into 96-well plates to reach the final volume of 100 μL. The bacteria grown with the maximum concentration of carrier and medium were considered as positive and negative controls, respectively. The plates were statically incubated overnight at 37° C. to allow bacterial growth. OD was measured at 590 nm a multipurpose ultraviolet-visible plate reader, and the absorbance of the growth bacteria was measured using absorbance reader. Bacterial growth was also visually inspected and agreed well with the OD reading.

[2] = tested on: E. coli clinical isolate, β-lactamase SHV-2; CTX-M-55; VIM-1; conditions: isolate 2017 Turkey, UTI, Urine
Procedure: as §1, §2

[3] = tested on: E. coli clinical isolate, β-lactamase TEM-1; conditions: isolates year NA, country NA
Procedure: as §1, §2

[4] = tested on: E. coli clinical isolate, β-lactamase TEM-ESBL; CTX-M-15; NDM-19; conditions: isolate 2017 Qatar, IAI, Abscess
Procedure: as §1, §2

[5] = tested on: E. coli clinical isolate, β-lactamase TEM-ESBL; CTX-M-15; NDM-5; conditions: isolate 2017 Qatar, UTI, Urine
Procedure: as §1, §2

[6] = tested on: E. coli clinical isolate, β-lactamase TEM-ESBL; CTX-M-24; OXA-48; conditions: isolate 2017 Turkey, IAI, Abscess
Procedure: as §1, §2

[7] = tested on: E. coli clinical isolate, β-lactamase TEM-ESBL; CTX-M-27; conditions: isolate 2017 Romania, UTI, Urine
Procedure: as §1, §2

[8] = tested on: E. coli clinical isolate, β-lactamase TEM-ESBL; CTX-M-TYPE; conditions: isolate 2017 France, IAI, Peritoneal Fluid
Procedure: as §1, §2

[9] = tested on: E. coli clinical isolate, β-lactamase TEM-ESBL
Procedure: as §1, §2

Substance: Ac-RLTAFLHNRRPRLTAFLRQRR-NH2 [TEM3.2]
- MIC ampicillin + 30 μg/mL TEM-3.2 [1]: 0.12
- MIC ampicillin + 30 μg/mL TEM-3.2 [2]: ≤0.06
- MIC ampicillin + 30 μg/mL TEM-3.2 [3]: ≤0.06
- MIC ampicillin + 30 μg/mL TEM-3.2 [4]: >64
- MIC ampicillin + 30 μg/mL TEM-3.2 [5]: >64
- MIC ampicillin + 30 μg/mL TEM-3.2 [6]: ≤0.06
- MIC ampicillin + 30 μg/mL TEM-3.2 [7]: ≤0.06
- MIC ampicillin + 30 μg/mL TEM-3.2 [8]: ≤0.06
- MIC ampicillin + 30 μg/mL TEM-3.2 ([9]; isolate 2016 Germany, UTI, Urine): ≤0.06
- MIC ampicillin + 30 μg/mL TEM-3.2 ([9]; isolate 2016 Lithuania, UTI, Urine): 1
- MIC ampicillin + 30 μg/mL TEM-3.2 ([9]; isolate 2017 Israel, UTI, Urine): ≤0.06
- MIC ampicillin + 30 μg/mL TEM-3.2 ([9]; isolate 2017 Portugal, RTI, Bronchi): 0.5
- MIC ampicillin + 30 μg/mL TEM-3.2 ([9]; isolates 2016 South Africa, IAI, Peritoneal Fluid): ≤0.06
